Non-standard residues stand in square brackets, D forms with d. Residues, ends and D or L forms follow the SMILES beside them. d(pT) = C[C@H](OP(=O)(O)O)[C@@H](N)C(=O)O
Legend:
[1] = Translational diffusion NMR (DOSY) of NLS peptides; type: physicochemical; conditions: ~100 μM peptide, 50 mM deuterated Tris pH 7.2, 100% D2O, 10 °C
From the text: For the four peptides, we measured the experimental value of D for dioxane ranging from (1.2 ± 0.1) × 10^−5 to (1.05 ± 0.02) × 10^−5 cm^2 s^−1 in each solution containing the corresponding peptide; we assumed a hydrodynamic radius of 2.12 Å for dioxane (Table 1) under any condition. […] Furthermore, the values of D were similar for the D- and L-peptides, and the latter were already being described as disordered. Thus, we can conclude that the four D-peptides were monomeric and disordered, like the L-form counterparts, and, then, there was no difference in the hydrodynamic properties of the peptides by changing the enantiomeric nature of the residues.
The NMR spectra were acquired at 10 °C on a Bruker Avance III spectrometer (Bruker GmbH, Mannheim, Germany), equipped with a triple-resonance probe and z-pulse field gradients. All NMR experiments with D-NLS peptides were carried out in 50 mM deuterated Tris buffer (not corrected for isotope effects), pH 7.2. Spectra were calibrated with TSP, by considering pH-dependent changes in its chemical shifts; probe temperature was calibrated with pure methanol.
The typical D-NLS peptide concentrations in DOSY experiments were ~100 μM, and 128 scans were acquired, in which the gradient strength was varied linearly in sixteen steps, between 2 and 95% of the total power of the gradient coil. Measurements of the translational self-diffusion coefficient, D, were performed with the pulsed-gradient spin-echo sequence in the presence of 100% D2O. Details on the experimental conditions and fitting of the resulting curves have been described elsewhere. Gradient strength was calibrated by using the value of D for the residual proton water signal in a sample containing 100% D2O, in a 5 mm tube [23]. Gradient length was 2.5 ms; the time between the two pulse gradients in the sequence was 250 ms; and the recovery delay between the bipolar gradients was 100 μs. The signals from methyl groups between 0.8 and 1.0 ppm were used for peak integration, for all the D-NLS peptides. A final concentration of 1% of dioxane, which was assumed to have a hydrodynamic radius Rh of 2.12 Å [23], was added to the solution of each peptide.

[2] = biological target: T1, Impα3 (Homo sapiens, UniProt O00629); assay: Biolayer interferometry (BLI) binding to Impα3; conditions: peptide 1–10 μM, 25 °C; for kon: BLItz, Impα3 immobilized via His-tag (0.25 μM), 10 × kinetics buffer, error from pseudo-first order fit, at least two repeats, read-out: kon; for koff: Impα3 immobilized via His-tag, error from pseudo-first order fit (Equation 5)
T1 construct: Human importin α3 isoform (residues 1–521); made in house
T1 sequence (O00629 1-521): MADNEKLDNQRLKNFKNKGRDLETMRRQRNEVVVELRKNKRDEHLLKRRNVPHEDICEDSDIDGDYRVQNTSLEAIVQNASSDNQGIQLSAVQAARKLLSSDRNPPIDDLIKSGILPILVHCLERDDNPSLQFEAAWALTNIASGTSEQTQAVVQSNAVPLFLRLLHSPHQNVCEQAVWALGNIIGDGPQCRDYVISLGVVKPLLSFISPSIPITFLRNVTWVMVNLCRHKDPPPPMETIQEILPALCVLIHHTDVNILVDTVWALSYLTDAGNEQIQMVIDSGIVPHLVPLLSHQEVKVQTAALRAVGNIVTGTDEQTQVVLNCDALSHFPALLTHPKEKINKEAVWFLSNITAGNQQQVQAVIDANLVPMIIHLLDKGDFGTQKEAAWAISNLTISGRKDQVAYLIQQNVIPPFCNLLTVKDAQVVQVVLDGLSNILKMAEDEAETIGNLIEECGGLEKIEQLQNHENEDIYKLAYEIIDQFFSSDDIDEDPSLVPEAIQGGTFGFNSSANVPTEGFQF
Description: (§1) The association (kon) and dissociation (koff) rate constants of the binding of D-NLS peptides to either Impα3 or ∆Impα3 were determined by using a BLItz system (ForteBio, Pall, Barcelona, Spain). The buffer used in the experiments was that recommended by the manufacturer. […] The peptide concentrations were in a range from 1 to 10 μM during the association step. The general scheme of the protein association/dissociation reactions in the BLItz system for the D-NLS peptides was as follows: 30 s of initial baseline acquisition with the 10 × kinetics buffer (provided by the manufacturer); 120 s of loading either Impα3 and ∆Impα3 into the biosensor; 30 s of baseline acquisition with the 10 × kinetics buffer; 120 s of association of each peptide to the biosensor (which had been previously loaded with the importin species); and 120 s of monitoring of the dissociation of each peptide from the biosensor. All experiments were carried out at 25 °C.
(§2) Fittings of the BLI sensorgrams was carried out by using KaleidaGraph, as previously described. The interferometry response during the association step, R(t) (measured in response units, RU), and the binding rate, dR(t)/dt, could be used to evaluate the kinetics of the formation of the complex between Impα3/∆Impα3 and each D-NLS, according to:(2) dR/dt=konD-NLSRmax−Rt−koffR(t) where Rmax is proportional to the total concentration of biosensor-bound importin species; and [D-NLS] represents the concentration of the corresponding D-NLS peptide.
(§3) In Equation (2), R(t) is given by:(3) Rt= Req−Reqe^(−kobs t−t0) where Req is the steady-state (or equilibrium) response obtained at infinite time, when dR(t)/dt = 0, and t0 = 180 s is the time at which the association step between biosensor-immobilized Impα3/∆Impα3 and D-NLS in the solution started. We fitted the experimentally obtained R(t) under any condition as:(4) Rt= Req−Reqe^−kobs t−t0−R’eq(t−t0) where R^′eq was included to consider the lineal drift observed at longer times.
(§4) The dissociation process was always fitted to a single exponential, with R(t) given by:(6) Rt=R1 e^(−kofft−t0)−R^″eq(t−t0) where t0 = 300 is the time at which the dissociation of the D-NLS from the biosensor-bound Impα3/∆Impα3 started in our experimental set-up, R1 is the response level when dissociation starts, and the parameter R^″eq considers the linear drift observed at longer times.
(§5) The experiments were repeated at least twice for each peptide with each importin species.

[3] = biological target: T2, ∆Impα3 (Homo sapiens, UniProt O00629); assay: Biolayer interferometry (BLI) binding to ∆Impα3; conditions: peptide 1–10 μM, 25 °C; for kon: BLItz, ∆Impα3 immobilized via His-tag (0.25 μM), 10 × kinetics buffer, error from pseudo-first order fit, at least two repeats, read-out: kon; for koff: ∆Impα3 immobilized via His-tag, error from pseudo-first order fit (Equation 5)
T2 construct: IBB-depleted species of Impα3 (residues 64–521 of the intact protein); made in house
T2 sequence (O00629 64-521): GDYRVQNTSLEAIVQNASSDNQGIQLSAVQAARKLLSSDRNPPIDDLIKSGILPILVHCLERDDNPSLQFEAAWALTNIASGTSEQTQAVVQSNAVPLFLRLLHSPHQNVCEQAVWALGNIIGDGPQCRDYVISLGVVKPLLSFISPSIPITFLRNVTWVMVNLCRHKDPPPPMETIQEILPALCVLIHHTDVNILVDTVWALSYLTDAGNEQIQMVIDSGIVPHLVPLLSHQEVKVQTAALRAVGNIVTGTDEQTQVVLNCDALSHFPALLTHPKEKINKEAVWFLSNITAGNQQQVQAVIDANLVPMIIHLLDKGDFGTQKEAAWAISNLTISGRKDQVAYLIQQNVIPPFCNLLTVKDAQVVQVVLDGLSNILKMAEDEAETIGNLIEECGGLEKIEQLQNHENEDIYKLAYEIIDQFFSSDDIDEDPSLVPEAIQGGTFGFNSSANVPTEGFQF
Description: as §1, §2, §3, §4, §5

Structure (SMILES): CC(=O)N[C@H](Cc1ccc(O)cc1)C(=O)N[C@@H](C(=O)N[C@H](CC(N)=O)C(=O)N[C@H](CCCNC(=N)N)C(=O)N1CCC[C@@H]1C(=O)N[C@H](CO)C(=O)N1CCC[C@@H]1C(=O)NCC(=O)NCC(=O)N[C@H](Cc1c[nH]cn1)C(=O)N[C@H](CCC(=O)O)C(=O)N[C@H](CCCNC(=N)N)C(=O)N[C@H](CCCCN)C(=O)N[C@H](CC(C)C)C(=O)N[C@@H](C(=O)N[C@@H](C(=O)N[C@H](CCCCN)C(=O)N[C@H](CC(C)C)C(=O)N[C@H](CCC(N)=O)C(=O)N[C@H](CC(N)=O)C(=O)N[C@H](CO)C(=O)N[C@H](CCC(=O)O)C(N)=O)[C@H](C)OP(=O)(O)O)C(C)C)[C@H](C)O [D-NLS-NUPR1phospho] (Ac-[dY][dT][dN][dR][dP][dS][dP]GG[dH][dE][dR][dK][dL][dV][d(pT)][dK][dL][dQ][dN][dS][dE]-NH2)
- Diffusion coefficient D [1]: 2.2 ± 0.2 cm^2 s^−1 × 10^6
- kon [2]: 10000 ± 3000 M⁻¹ s⁻¹
- koff [2]: 0.13 ± 0.02 s⁻¹
- kon [3]: 6000 ± 1000 M⁻¹ s⁻¹
- koff [3]: 0.05 ± 0.01 s⁻¹

Structure (SMILES): CC[C@@H](C)[C@@H](NC(=O)[C@@H](CCCCN)NC(=O)[C@@H](CCC(N)=O)NC(=O)[C@@H](CCC(N)=O)NC(=O)[C@@H](CCCCN)NC(=O)[C@@H](CCCCN)NC(=O)[C@@H](CCCCN)NC(=O)[C@@H](CCCCN)NC(=O)[C@H](NC(=O)CNC(=O)[C@@H](CCC(=O)O)NC(=O)[C@@H](Cc1ccccc1)NC(=O)[C@@H](CC(C)C)NC(=O)[C@@H](CC(C)C)NC(=O)[C@@H](C)NC(=O)[C@@H](CCC(=O)O)NC(=O)CNC(=O)[C@@H](Cc1c[nH]cn1)NC(=O)CNC(=O)[C@@H](CCC(=O)O)NC(=O)[C@@H](CC(N)=O)NC(=O)[C@@H](CCC(N)=O)NC(=O)[C@@H](CCC(N)=O)NC(=O)[C@@H](CCC(=O)O)NC(=O)[C@@H](CCC(N)=O)NC(=O)[C@@H](Cc1ccccc1)NC(=O)[C@@H](CC(C)C)NC(=O)[C@@H](CCCCN)NC(C)=O)[C@H](C)CC)C(N)=O [D-NLS-PADI] (Ac-[dK][dL][dF][dQ][dE][dQ][dQ][dN][dE]G[dH]G[dE][dA][dL][dL][dF][dE]G[dI][dK][dK][dK][dK][dQ][dQ][dK][dI]-NH2)
- Diffusion coefficient D [1]: 1.0 ± 0.1 cm^2 s^−1 × 10^6
- kon [2]: 45000 ± 20000 M⁻¹ s⁻¹
- koff [2]: 0.6 ± 0.1 s⁻¹
- kon [3]: 60000 ± 10000 M⁻¹ s⁻¹
- koff [3]: 0.37 ± 0.05 s⁻¹

— paper PMC12386367, “Importin α3 Is Tolerant to Nuclear Localization Signal Chirality” (International Journal of Molecular Sciences, 2025)
